Experimental data from PMC9594048, “Targeting a Multidrug-Resistant Pathogen: First Generation Antagonists of Burkholderia cenocepacia’s BC2L-C Lectin” (ACS Chemical Biology, 2022).
Like-named read-outs stand apart in the source and are kept apart here.

Tests used:
[1] = target: T1, BC2L-C-Nt (rBC2L-CN2) (Burkholderia cenocepacia, UniProt B4EH86); assay: Surface plasmon resonance (SPR) affinity on BC2L-C-Nt-coated chip; format: binding; conditions: 25 °C, rBC2L-CN2 immobilized on CM5 chip, multi-cycle affinity; SD from duplicates
Description: Experiments were performed on a BIACORE X100 instrument (GE Healthcare) at 25 °C in running buffer 10 mM HEPES pH 7.4, 150 mM NaCl, and 0.05% Tween 20, adjusted to include 8% DMSO when required. rBC2L-CN2 was immobilized onto CM5 chips (BIACORE) following the amine coupling procedure detailed in the Supporting Information. The analytes were dissolved in the running buffer at increasing concentrations (range: 3.28–3500 μM) and subjected to multi-cycle affinity studies (300 s association, 300 s dissociation, flow rate 5 μL/min). Injections of compounds at increasing concentrations onto the immobilized rBC2L-CN2 were followed by regeneration of the surface: 10 mM fucose in running buffer and then running buffer at 5 μL/min (100 and 150 s, respectively) after each analyte association/dissociation. For the higher concentrations, regeneration was secured by performing one or more runs replacing analyte by running buffer. Duplicates were performed for all ligands. Binding affinity (KD) was measured after subtracting the channel 1 reference (no immobilized protein) and subtracting a blank injection (running buffer—zero analyte concentration). Data evaluation and curve fitting were performed using the provided BIACORE X100 evaluation software (version 2.0). The protein-coated chip was stored at 4 °C in running buffer and was functional up to 8 weeks after fabrication, as proven by experimentation. […]
3.2. Surface plasmon Resonance
Experiments were performed on a BIACORE X100 instrument (GE Healthcare) at 25 °C in running buffer 10 mM HEPES pH 7.4, 150 mM NaCl and 0.05% Tween 20, adjusted to include 8% DMSO when indicated. rBC2L-CN2 was immobilized onto CM5 chips (BIACORE) following the amine […]
• Activation of the chip by three injections of a NHS/EDC mixture at 10 μL/min for 540s, until a minimum of 300 RU was observed on both channels.
• Injection of rBC2L-CN2 (0.5 mg/mL) dissolved in 10 mM sodium acetate pH 4.5 onto channel 2 (contact time of 540s, flow rate of 10 μL/min), until a minimum of 7000 RU was […]
• Inactivation of both channels by injecting a 1M ethanolamine (pH 8.5) solution at 5 μL/min for 1080s, achieving over 400 and 7000 RU for channel 1 and 2, respectively.
The analytes were dissolved in the running buffer at increasing concentrations (range: 3.28 − 3500 μM) and subjected to multi-cycle affinity studies (300s association, 300s dissociation, flow rate 5 μL/min). Injections of compounds at increasing concentrations onto the immobilized rBC2L-CN2 were followed by regeneration of the surface: 10 mM fucose in running buffer, then running buffer at 5 μL/min (100s and 150s, respectively) after each analyte association/dissociation. For the higher concentrations, regeneration was secured by performing one or more runs replacing analyte by running buffer. Duplicates were performed for all ligands. Binding affinity (KD) was measured after subtracting the channel 1 reference (no immobilized protein) and subtracting of a blank injection (running buffer - zero analyte concentration). Data evaluation and curve fitting was performed using the provided BIACORE X100 evaluation software (version 2.0). […]

[2] = target: T1, BC2L-C-Nt (rBC2L-CN2); assay: Isothermal titration calorimetry (ITC); format: binding; conditions: for Kd: 25 °C
Description: All experiments were performed at 25 °C with an ITC200 isothermal titration calorimeter (Microcal-Malvern Panalytical, Orsay, France). The protein rBC2L-CN2 and its ligands were dissolved in a buffer composed of 20 mM Tris HCl pH 7.0 and 100 mM NaCl. The 200 μL sample cell containing rBC2L-CN (concentrations ranging from 200 to 400 μM) was subjected to injections of ligand solution: 20 to 39 injections of 1 μL or 70 injections of 0.5 μL (5 to 50 mM, chosen depending on the ligand) at intervals of 100, 120, or 200 s, while stirring at 850 rpm. Control experiments were performed by repeating the same protocol, but injecting the ligand into buffer solution. The supplied software Origin 7 or MicroCal PEAQ-ITC was used to fit the experimental data to a theoretical titration curve allowing the determination of affinity.
3. Ligand evaluation materials and methods
3.1. Isothermal Titration Calorimetry
All experiments were performed at 25 °C with an ITC200 isothermal titration calorimeter (Microcal - Malvern Panalytical, Orsay, France). The protein rBC2L -CN2 and its ligands were dissolved in a buffer composed of 20 mM Tris HCl pH 7.0 and 100 mM NaCl. The 200 µL sample cell containing rBC2L-CN (concentrations ranging from 200 to 400 µM) was subjected to injections of ligand solution: 20 to 39 injections of 1 µL or 70 injections of 0.5 µL (5 to 50 mM, chosen depending on the ligand) at intervals of 100, 120 or 200s while stirring at 850 rpm. Control experiments were performed by repeating the same protocol, but injecting the ligand into buffer solution. The supplied software Origin 7 or MicroCal PEAQ-ITC was used to fit the experimental data to a t heoretical titration curve allowing the determination of affinity (i.e., association constant, K a), binding enthalpy (∆H), and stoichiometry (n). Values for free energy change (∆G) and entropy contributions (T∆S) […]
1.K-1. For experiments in ligand excess, the stoichiometry was fixed to 1. […]

[3] = Solubility (qualitative remark); format: physicochemical; conditions: prevented affinity evaluation by ITC
[4] = target: T1, BC2L-C-Nt (rBC2L-CN2); assay: biochemical; format: binding; conditions: for Tonset / Tm1 / Tm2: protein 14.3 μM, ligand 143 μM; for Tonset: SD from duplicates; for Tm1: first thermal event, protein alone 82.2 °C; for Tm2: main thermal event, protein alone 84.5 °C; for ΔTm2: shift of main thermal event vs protein alone
Description: Experiments were performed on a Microcal PEAQ-DSC instrument (Malvern Panalytical, Orsay, France). A buffer composed of 20 mM Tris HCl pH 7.0 and 100 mM NaCl was used to dilute the protein rBC2L-CN2 and its ligands to concentrations 14.3 and 143 μM, respectively. Samples of 250 μL were loaded, while the reference cell was filled with the matching buffer (aforementioned buffer, ligands when relevant). […] The data were acquired on “Low” feedback mode. The supplied software MicroCal PEAQ-DSC Software 1.53 was used to fit the experimental data. […] The profile obtained was fitted with a “NonTwoState” model, accounting for two thermal events. Each experiment was performed in duplicates, and their averages were calculated by the software.
3. […]
3.3. Differential Scanning Calorimetry
Experiments were performed on a Microcal PEAQ-DSC instrument (Malvern Panalytical, Orsay, […]

[5] = 20 mM Tris HCl pH 7.0, 100 mM NaCl, SD from duplicates

T1 sequence (B4EH86 entry or part of it): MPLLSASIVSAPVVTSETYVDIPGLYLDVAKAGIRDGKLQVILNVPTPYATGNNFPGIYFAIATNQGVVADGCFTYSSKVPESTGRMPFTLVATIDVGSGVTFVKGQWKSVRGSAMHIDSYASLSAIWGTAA

Row | SMILES | Kd [1] | Kd [2, 5] | other results
1 | C[C@@H]1O[C@H](NC(=O)c2ccc(C(C)(C)CN)cc2)[C@@H](O)[C@H](O)[C@@H]1O [8a] | 940 ± 10 µM | 2550 ± 1000 µM | 
2 | CNCc1ccc(C(=O)N[C@H]2O[C@@H](C)[C@@H](O)[C@@H](O)[C@@H]2O)cc1 [8b] | 1570 ± 60 µM | 3660 ± 210 µM | 
3 | C[C@@H]1O[C@H](NC(=O)c2ccc(-c3cccc(N)c3)o2)[C@@H](O)[C@H](O)[C@@H]1O [8c] | 2360 ± 970 µM |  | solubility [3]: very low and poor
4 | C[C@@H]1O[C@H](NC(=O)c2ccc3cc[nH]c3c2)[C@@H](O)[C@H](O)[C@@H]1O [8d] | 3420 ± 220 µM | 3490 ± 1300 µM | 
5 | C[C@@H]1O[C@H](NC(=O)c2ccc3[nH]ccc3c2)[C@@H](O)[C@H](O)[C@@H]1O [8e] | 1420 ± 20 µM |  | activity compared with methyl-fucoside 13 (ITC) ([2]; ITC KD compared with […]): better activity than methyl-fucoside 13
6 | C[C@@H]1O[C@H](n2cc(-c3ccc(C(C)(C)CN)cc3)nn2)[C@@H](O)[C@H](O)[C@@H]1O [12a] | 1190 ± 50 µM | 2490 ± 60 µM | 
7 | CNCc1ccc(-c2cn([C@H]3O[C@@H](C)[C@@H](O)[C@@H](O)[C@@H]3O)nn2)cc1 [12b] | 2450 ± 20 µM | 6250 ± 720 µM | 
8 | C[C@@H]1O[C@H](C#Cc2ccc(C(C)(C)CN)cc2)[C@@H](O)[C@H](O)[C@@H]1O [22a] | 1330 ± 150 µM | 280 ± 10 µM | Tonset [4]: 73.29 ± 1.54 °C; Tm1 [4]: 82.43 ± 0.02 °C; Tm2 [4]: 84.71 ± 0.01 °C; ΔTm at 143 µM ([4]; read-out: ΔTm1): 0.21 °C; ΔTm at 143 µM ([4]; read-out: ΔTm2): 0.17 °C; Kd [2]: 281 µM; affinity increase from αMeFuc (ITC) ([2]; relative to […]): ~10 fold
9 | CNCc1ccc(C#C[C@H]2O[C@@H](C)[C@@H](O)[C@@H](O)[C@@H]2O)cc1 [22b] | 7850 ± 3390 µM | 1240 ± 70 µM | 
10 | C[C@@H]1O[C@H](C#CC(O)c2ccc3ncccc3c2)[C@@H](O)[C@H](O)[C@@H]1O (stereo partly shown) [22f] | 301 ± 1 µM |  | Kd [2]: 490 µM
11 | C[C@@H]1O[C@H](C#Cc2ccc(CNC(=N)N)cc2)[C@@H](O)[C@H](O)[C@@H]1O [22g] | 1300 ± 600 µM | 910 ± 30 µM | 
12 | CNCc1ccc(/C=C/[C@H]2O[C@@H](C)[C@@H](O)[C@@H](O)[C@@H]2O)cc1 [28b] | 1020 ± 20 µM | 3370 ± 400 µM | 
13 | CC(=O)N[C@H]1C(O)O[C@H](CO)[C@@H](O)[C@@H]1O[C@@H]1O[C@H](CO)[C@H](O)[C@H](O)[C@H]1O[C@@H]1O[C@@H](C)[C@@H](O)[C@@H](O)[C@@H]1O (stereo partly shown) [H-type 1 trisaccharide, Fucα(1–2)Galβ(1–3)GlcNAc] |  |  | Tonset [4]: 74.09 ± 0.26 °C; Tm1 [4]: 82.65 ± 0.01 °C; Tm2 [4]: 84.92 ± 0.01 °C; ΔTm1 ([4]; shift of first thermal event vs protein alone): 0.44 °C; ΔTm2 [4]: +0.38 °C; ΔTm2 ([4]; listed as H-type 1): 0.38 ± 0.01 °C
